{"source": "patent US12472185B2", "about": "“Methods for killing antibiotic tolerant bacteria” (THE PENN STATE RESEARCH FOUNDATION, priority 2020, dated 2025)", "key": {"[1]": {"tested_on": "E. coli BW25113", "assay": "Lysis assays (total protein and DNA in supernatants)", "assay_type": "cell-based, Escherichia coli", "conditions": "100 μM, 1 hr", "procedure": "(§1) FIG. 5. NPIMA lyses Escherichia coli, Pseudomonas aeruginosa, and Staphylococcus aureus. Total protein (a) and DNA (b) found in supernatants as evidence of cell lysis after treatment of cells at a turbidity of 0.8 at 600 nm with 100 μM NPIMA after 1 hr for E. coli and P. aeruginosa and 6 hr for S. aureus. NPIMA, 5-nitro-3-phenyl-1H-indol-2-yl-methylamine hydrochloride.\n(§2) Exponentially-growing E. coli BW25113 cells (turbidity 0.8 at 600 nm) were washed twice with 0.85% NaCl, resuspended in 1 ml of 1×PBS, and NPIMA (100 μM) was added for 1 hr for E. coli and P. aeruginosa and 6 hr for S. aureus with shaking at 250 rpm (0.1% DMSO was used as the negative control). Cell supernatants were collected after centrifuging at 6,500 g (4° C. for 15 min), and total protein was measured by the Bicinchoninic Acid (BCA) protein assay Kit (Prod #23227; Pierce). DNA in the supernatant (199 μl) was detected by adding 1 μl of Picogreen (P7589; Invitrogen) and incubating for 5 min at room temperature in the dark room. The fluorescence signal was read by a Tecan microplate reader (Infinite M200PRO) with 480 nm excitation and 520 nm emission by utilizing a calibration curved made with plasmid pEX18Ap at 0, 0.004, 0.008, 0.016, 0.063, 0.125, 0.25, and 0.5 ng/μl."}, "[2]": {"tested_on": "P. aeruginosa", "assay": "Lysis assays (total protein and DNA in supernatants)", "assay_type": "cell-based, Pseudomonas aeruginosa", "conditions": "100 μM, 1 hr", "procedure": "as §1, §2"}, "[3]": {"tested_on": "E. coli BW25113", "assay": "Transmission electron microscopy (TEM)", "assay_type": "cell-based, Escherichia coli", "conditions": "100 μM", "procedure": "FIG. 6. NPIMA damages the Escherichia coli cell membrane. Transmission electron microscopic (TEM) images of E. coli BW25113 after NPIMA (100 μM) treatment for 40 min. Two representative images are shown. The arrow indicates membrane damage. NPIMA, 5-nitro-3-phenyl-1H-indol-2-ylmethylamine hydrochloride.\nFor transmission electron microscopy (TEM), E. coli BW25113 was grown to a turbidity of 0.8 at OD600, contacted with NPIMA at 100 μM for 0.75 hr in PBS, centrifuged at 8000 g, and resuspended in PBS. The samples were fixed with buffer (2.5% glutaraldehyde in 0.1M cacodylate buffer, pH 7.4) and negative stained with 2% uranyl acetate in the dark for 1 hr, then dehydrated. The sectioned specimens were stained again with uranyl acetate and lead citrate after dehydration and resin embedded. TEM images were obtained using a JEOL JEM 1200 EXII instrument."}, "[4]": {"tested_on": "human cancer HT-29 cells", "assay": "Viability (CCK-8) and cytotoxicity (LDH) assays", "assay_type": "cell-based", "conditions": "24 hr", "procedure": "FIG. 11. Cytotoxicity of NPIMA with HT-29 cells. (A) Cell viability was measured via a CCK-8 assay. (B) Cytotoxicity was measured with various concentrations of NPIMA […] for 24 h. Cell viability was measured at 450 nm, and cell toxicity was measured at 492 nm and a reference wavelength ([…]) was used.\nFor bacterial viability, cells were washed twice with 0.85% NaCl, resuspended in 1×PBS, and cell counts were determined via the drop assay (Donegan, Matyac, Seidler, & Porteous, 1991). For human cell viability, pre-cultured human cancer HT-29 cells were dispensed in 98 μl in 96-well plates with approximately 5,000 cells/well. NPIMA was added (2 μl) to produce concentrations of 5, 10, 100, and 200 μM. For controls, Triton X-100 (positive control) and DMSO (negative solvent control), were used, and the medium was used for background. Plates were incubated in a humidified incubator (37° C., 5% CO2) for 24 hr. Cell viability was determined via a cell counting kit (CCK-8 Kit, ab228554; Abcam), and cytotoxicity was determined via the lactate dehydrogenase (LDH) assay (LDH Assay Kit, MK401; Takara)."}}, "data": [{"smiles": "Cl.NCc1[nH]c2ccc([N+](=O)[O-])cc2c1-c1ccccc1", "note": "[NPIMA, [(5-nitro-3-phenyl-1H-indol-2-yl)methyl]amine hydrochloride]", "values": [{"measurement": "increase in DNA in the supernatants compared to DMSO alone", "setting": "[1]", "result": "3.8±0.8"}, {"measurement": "increase in total cell protein in supernatants compared to DMSO alone", "setting": "[1]", "result": "10±2"}, {"measurement": "increase in DNA released compared to DMSO alone", "setting": "[2]", "result": "1.19±0.09", "unit": "fold"}, {"measurement": "total protein released compared to DMSO alone", "setting": "[2]", "result": "4.0±0.4", "unit": "fold"}, {"measurement": "cell envelope damage by TEM", "setting": "[3]", "result": "clear cell envelope damage"}, {"measurement": "toxicity (LDH and CCK-8)", "setting": "[4]; 5 μM", "result": "not toxic"}, {"measurement": "toxicity (LDH and CCK-8)", "setting": "[4]; 10 μM", "result": "not toxic"}, {"measurement": "concentrations showing toxicity in both tests", "setting": "[4]", "result": "≥ 50", "unit": "µM"}]}]}
